Data as given in patent US7122548B2, “Triazolotriazine compounds and uses thereof” (Sugen, Inc., priority 2003, dated 2006).
pIC50: −log10 of the molar value.

Biological target: T1, c-MET (Homo sapiens, UniProt P08581)
T1 construct: Purified GST fusion protein containing the Met kinase domain, Sugen, Inc
Assay: Met Transphosphorylation Assay (ELISA, poly(Glu,Tyr) 4:1 substrate)
Format: biochemical
Details: purified GST fusion protein containing the Met kinase domain
Protocol: Met Transphosphorylation Assay
This assay is used to measure phosphotyrosine levels on a poly(glutamic acid:tyrosine (4:1)) substrate as a means for identifying agonists/antagonists of met transphosphorylation of the substrate.
6. Purified GST fusion protein containing the Met kinase domain, Sugen, Inc.
8. 10% aqueous (MilliQue H2O) DMSO.
10. 2× Kinase Dilution Buffer: for 100 ml, mix 10 mL 1M HEPES at pH 7.5 with 0.4 mL 5% BSA/PBS, 0.2 mL 0.1 M sodium orthovanadate and 1 mL 5M sodium chloride in 88.4 mL dH2O.
11. 4× ATP Reaction Mixture: for 10 mL, mix 0.4 mL 1 M manganese chloride and 0.02 mL 0.1 M ATP in 9.56 mL dH2O.
12. 4× Negative Controls Mixture: for 10 mL, mix 0.4 mL 1 M manganese chloride in 9.6 mL dH2O.
15. Antibody Dilution Buffer: for 100 mL, mix 10 mL 5% BSA/PBS, 0.5 mL 5% Carnation Instant Milk® in PBS and 0.1 mL 0.1 M sodium orthovanadate in 88.4 mL TBST.
16. Rabbit polyclonal antophosphotyrosine antibody, Sugen, Inc.
17. Goat anti-rabbit horseradish peroxidase conjugated antibody, Biosource, Inc.
18. ABTS Solution: for 1 L, mix 19.21 g citric acid, 35.49 g Na2HPO4 and 500 mg ABTS with sufficient dH2O to make 1 L.
19. ABTS/H2O2: mix 15 mL ABST solution with 2pL H2O2 five minutes before use.
1. Coat ELISA plates with 2 μg Poly(Glu—Tyr) in 100 μL PBS, store overnight at 4° C.
2. Block plate with 150 μL of 5% BSA/PBS for 60 min.
3. Wash plate twice with PBS, once with 50 mM Hepes buffer pH 7.4.
4. Add 50 μl of the diluted kinase to all wells. (Purified kinase is diluted with Kinase Dilution Buffer. Final concentration should be 10 ng/well.)
5. Add 25 μL of the test compound (in 4% DMSO) or DMSO alone (4% in dH2O) for controls to plate.
6. Incubate the kinase/compound mixture for 15 minutes.
7. Add 25 μL of 40 mM MnCl2 to the negative control wells.
8. Add 25 μL ATP/MnCl2 mixture to the all other wells (except the negative controls). Incubate for 5 min.
9. Add 25 μL 500 mM EDTA to stop reaction.
10. Wash plate 3× with TBST.
11. Add 100 μL rabbit polyclonal anti-Ptyr diluted 1:10,000 in Antibody Dilution Buffer to each well. Incubate, with shaking, at room temperature for one hour.
12. Wash plate 3× with TBST.
13. […] Add 100 μL per well and incubate at room temperature, with shaking, for one hour.
14. Wash plate 1× with PBS.
15. Add 100 μl of ABTS/H2O2 solution to each well.
16. If necessary, stop the development reaction with the addition of 100 μl of 0.2M HCl per well.
Met Transphosphorylation Assay Results

T1 sequence (P08581 1078-1345 limits assumed): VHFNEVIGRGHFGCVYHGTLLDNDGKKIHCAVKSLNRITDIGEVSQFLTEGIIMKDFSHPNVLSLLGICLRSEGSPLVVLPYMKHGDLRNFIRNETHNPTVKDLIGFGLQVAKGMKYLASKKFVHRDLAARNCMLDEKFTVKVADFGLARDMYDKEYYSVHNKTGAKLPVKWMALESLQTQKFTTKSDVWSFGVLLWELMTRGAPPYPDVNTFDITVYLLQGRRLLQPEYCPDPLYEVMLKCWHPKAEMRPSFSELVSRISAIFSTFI

Compound	pIC50
Oc1ccc(Cc2nnc3ncc(-c4cccs4)nn23)cc1 [Example 2, 4-(6-Thiophen-2-yl-[1,2,4]triazolo[4,3-b][1,2,4]triazin-3-ylmethyl)-phenol]	8.40
Fc1ccc(Cc2nnc3ncc(-c4ccccc4)nn23)cc1 [Example 4, 3-(4-Fluoro-benzyl)-6-phenyl-[1,2,4]triazolo[4,3-b][1,2,4]triazine]	7.30
Fc1ccc(Cc2nnc3ncc(-c4cccs4)nn23)cc1 [Example 5, 3-(4-Fluoro-benzyl)-6-thiophen-2-yl-[1,2,4]triazolo[4,3-b][1,2,4]triazine]	7.89
Fc1ccc(Cc2nnc3ncc(-c4ccc(Br)cc4)nn23)cc1 [Example 6, 6-(4-Bromo-phenyl)-3-(4-fluoro-benzyl)-[1,2,4]triazolo[4,3-b][1,2,4]triazine]	7.35
Oc1ccc(Cc2nnc3nccnn23)cc1 [Example 7, 4-[1,2,4]Triazolo[4,3-b][1,2,4]triazin-3-ylmethyl-phenol]	7.25
Cc1nc2nnc(Cc3ccc(O)cc3)n2nc1C [Example 8, 4-(6,7-Dimethyl-[1,2,4]triazolo[4,3-b][1,2,4]triazin-3-ylmethyl)-phenol]	< 4.70
Cc1nn2c(Cc3ccc(O)cc3)nnc2nc1N [Example 9, 4-(7-Amino-6-methyl-[1,2,4]triazolo[4,3-b][1,2,4]triazin-3-ylmethyl)-phenol]	6.08
